According to patent US20120196019A1, “STEVIA SWEETENER WITH A SURFACTANT” (priority 2011, published 2012):
Read-outs that look alike come from different tables or passages of the source.

Experiments:
[1] = DLS size determination of 500 ppm RA solutions with gum Arabic (Example 5, FIGS. 7-9); format: physicochemical; settings: conclusion of Example 5
Method: This example was for size determination.
The solutions noted below were filtered with a 0.45 μm membrane.
Measurements were obtained by DLS after the solution was filtered and allowed to equilibrate for six hours.
According to FIGS. 7 through 9, it was determined that: […]

[2] = cited from earlier work; for taste in sensory tests: 100% purity
[3] = Saturation of Reb A aqueous solution (Example 3); format: physicochemical; settings: water
Method: Three concentrations of Reb A aqueous solutions were prepared: 500 ppm, 0.8% and 2.0%.
The 0.8% (by weight) is saturated.
The 2.0% (by weight) is over-saturated. After preparation, Reb A will continue to precipitate slowly and finally result in a 0.8% solution.

In the case of `C=C1C[C@@]23CC[C@H]4[C@@](C)(CCC[C@@]4(C)C(=O)O[C@@H]4O[C@H](CO)[C@@H](O)[C@H](O)[C@H]4O)[C@@H]2CC[C@]1(O[C@@H]1O[C@H](CO)[C@@H](O)[C@H](O[C@@H]2O[C@H](CO)[C@@H](O)[C@H](O)[C@H]2O)[C@H]1O[C@@H]1O[C@H](CO)[C@@H](O)[C@H](O)[C@H]1O)C3` [Reb A, Rebaudioside A], the “size of micelles that the molecules tend to form in solution” value [1] is listed as “above 1000 nm”, the “stability of the solution (aggregation)” value [1] is listed as “unstable” and the “taste in sensory tests” value ([2]; 200 ppm aqueous solution) is listed as “cannot bring a perfect taste close to sugar”. For the same compound, the “taste in sensory tests” value ([2]; higher concentrations, for example 500 ppm) was “bitterness and aftertaste issues appear strongly”, the “taste quality (increased sweetness and decreased bitterness)” value ([2]; Phytochemistry 68, 2007, 1855-1863) was “better than stevioside” and the “concentration of the saturated aqueous solution” value [3] was 0.8 % (by weight).
